Measurements reported in patent publication US20050288259A1, “Composition” (priority 2002, published 2005).

Assays:
[1] = tested on: L. cuprina diflubenzuron-resistant strain (Emmaville); assay: In vitro first stage larvae exposure, prevention of adult fly emergence, diflubenzuron-resistant strain; parameters: species or system Lucilia cuprina
Excerpt: Dicyclanil and diflubenzuron belong to different chemical families but are loosely grouped into a large class commonly known as “insect growth regulators”. Importantly both compounds interfere differently with the various development stages of insects. […] The invention makes use of the fact that dicyclanil will control the strains of blowfly that diflubenzuron is ineffective against.
Fly larvae belonging to a diflubenzuron-susceptible strain (LS) and a diflubenzuron-resistant strain (Emmaville) of L. cuprina are tested. First stage larvae are exposed to differing concentrations (aimed to achieve 0-100% prevention of adult fly emergence) of dicyclanil, diflubenzuron or a combination of the two actives (at the ratio used in the invention). The number of larvae forming pupae and the number of pupae producing viable adult flies are recorded. The level of diflubenzuron resistance in the Emmaville strain prevents achieving complete inhibition of adult fly emergence with diflubenzuron. Maximum mortality is 41% at 300 mg diflubenzuron/kg. The limit of solubility of diflubenzuron precludes the testing of higher concentrations.

[2] = Tissue residue study in sheep; assay type: in vivo; details: 2, 3, 4, 5, 6 or 17 weeks after treatment with the invention; none above Limit of Quantitation
Description: Tissue residue studies are carried out to determine the period after treatment where the produce of treated animals cannot be used for human consumption. The proposed maximum dose rate for the invention is used in this evaluation. Sheep are treated with the invention at the commencement of the study and at pre-defined intervals thereafter, groups of sheep are humanely sacrificed and the appropriate target tissues (liver, kidney, muscle, fat) are recovered and subsequently analyzed (under Good Laboratory Practice conditions) for the presence of active ingredients (and their metabolites if necessary).
The residue definition for dicyclanil in Australia is the sum of dicyclanil and its metabolite CGA 297′107. Considering this, in the course of this study the mean maximum residue concentrations were detected at two and three weeks post-treatment.
The residue definition for diflubenzuron in Australia is expressed as only diflubenzuron. In this study there were no detectable residues in individual tissues (liver, kidney, subcutaneous fat, renal fat) from any animal above the Limit of Quantitation (0.025 mg/kg) at 2, 3, 4, 5, 6 or 17 weeks after treatment.

| Compound | Emmaville strain response to dicyclanil ([1]; Emmaville strain compared with LS) | Maximum mortality ([1]; Emmaville strain, 300 mg diflubenzuron/kg) | diflubenzuron residues in individual tissues (liver, kidney, subcutaneous fat, renal fat) [2] |
| --- | --- | --- | --- |
| N#Cc1c(N)nc(NC2CC2)nc1N [dicyclanil, 4,6-diamino-2-cyclopropylaminopyrimidine-5-carbonitrile] | typical of a susceptible strain | – | – |
| O=C(NC(=O)c1c(F)cccc1F)Nc1ccc(Cl)cc1 [diflubenzuron, 1-(4-chlorophenyl)-3-(2,6-difluorobenzoyl)urea] | – | 41% | < 0.025 mg/kg |
